Broadly, the IC50 is the concentration needed to halve the response being measured. A higher IC50 goes with lower potency.

Each structure is given as a SMILES string.

The values that follow come from ChEMBL document CHEMBL1154707, “Morpholine derivatives greatly enhance the selectivity of mammalian target of rapamycin (mTOR) inhibitors” (J Med Chem, 2009).

Assay [1] can be described thus: Selectivity for FLAG-tagged human mTOR over PI3Kalpha.
The target in assay [2] is Serine/threonine-protein kinase mTOR (Homo sapiens, UniProt P42345). Nature of the assay: Inhibition of FLAG-tagged human mTOR by DELFIA method.
For assay [3], the target named is T1, Phosphatidylinositol 4,5-bisphosphate 3-kinase catalytic subunit delta isoform (Homo sapiens, UniProt O00329).
T1 sequence (O00329 whole entry): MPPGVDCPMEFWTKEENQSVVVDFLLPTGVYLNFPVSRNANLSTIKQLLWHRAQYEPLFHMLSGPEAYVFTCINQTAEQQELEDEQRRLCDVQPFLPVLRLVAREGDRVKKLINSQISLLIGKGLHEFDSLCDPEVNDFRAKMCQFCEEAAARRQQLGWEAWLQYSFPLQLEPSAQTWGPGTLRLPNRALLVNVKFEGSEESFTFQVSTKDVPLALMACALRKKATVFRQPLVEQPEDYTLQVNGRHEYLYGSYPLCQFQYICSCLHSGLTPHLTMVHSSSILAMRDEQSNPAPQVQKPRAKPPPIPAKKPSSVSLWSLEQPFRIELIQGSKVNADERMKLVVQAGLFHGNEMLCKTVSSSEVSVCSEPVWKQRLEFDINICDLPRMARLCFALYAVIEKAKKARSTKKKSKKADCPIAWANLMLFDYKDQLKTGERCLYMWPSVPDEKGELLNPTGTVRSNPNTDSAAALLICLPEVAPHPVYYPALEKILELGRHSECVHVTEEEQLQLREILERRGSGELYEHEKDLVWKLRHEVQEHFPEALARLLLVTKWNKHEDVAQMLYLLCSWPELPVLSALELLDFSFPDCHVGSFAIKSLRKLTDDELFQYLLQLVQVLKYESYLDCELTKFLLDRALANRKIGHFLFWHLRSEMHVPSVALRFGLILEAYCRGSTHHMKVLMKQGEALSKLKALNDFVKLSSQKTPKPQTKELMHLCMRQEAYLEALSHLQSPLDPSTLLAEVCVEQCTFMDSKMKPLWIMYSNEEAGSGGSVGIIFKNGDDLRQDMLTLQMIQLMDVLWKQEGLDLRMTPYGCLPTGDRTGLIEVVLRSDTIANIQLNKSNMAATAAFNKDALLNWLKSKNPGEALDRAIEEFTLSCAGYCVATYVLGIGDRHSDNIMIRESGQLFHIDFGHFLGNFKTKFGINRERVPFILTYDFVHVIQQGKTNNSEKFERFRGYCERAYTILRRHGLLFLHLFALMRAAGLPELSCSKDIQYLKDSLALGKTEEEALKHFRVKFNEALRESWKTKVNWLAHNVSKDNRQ
The assay is described as follows: Inhibition of PI3Kdelta.

The target of assay [4] is Phosphatidylinositol 4,5-bisphosphate 3-kinase catalytic subunit beta isoform (Homo sapiens, UniProt P42338). Nature of the assay: Inhibition of PI3Kbeta.
The target of assay [5] is Phosphatidylinositol 4,5-bisphosphate 3-kinase catalytic subunit alpha isoform (Homo sapiens, UniProt P42336). The assay is described as follows: Inhibition of PI3Kalpha.
The subject of assay [6] is LNCaP. The assay is described as follows: Growth inhibition of human LNCAP cells after 3 days by MTS method. The conditions noted are these: 72 h. It counts as functional, cell-based. Background: Tetrazolium assays rely on reduction of a dye to a coloured formazan, in cell work by metabolically active cells.

Sequence of Phosphatidylinositol 4,5-bisphosphate 3-kinase catalytic subunit alpha isoform (P42336 whole entry, canonical isoform): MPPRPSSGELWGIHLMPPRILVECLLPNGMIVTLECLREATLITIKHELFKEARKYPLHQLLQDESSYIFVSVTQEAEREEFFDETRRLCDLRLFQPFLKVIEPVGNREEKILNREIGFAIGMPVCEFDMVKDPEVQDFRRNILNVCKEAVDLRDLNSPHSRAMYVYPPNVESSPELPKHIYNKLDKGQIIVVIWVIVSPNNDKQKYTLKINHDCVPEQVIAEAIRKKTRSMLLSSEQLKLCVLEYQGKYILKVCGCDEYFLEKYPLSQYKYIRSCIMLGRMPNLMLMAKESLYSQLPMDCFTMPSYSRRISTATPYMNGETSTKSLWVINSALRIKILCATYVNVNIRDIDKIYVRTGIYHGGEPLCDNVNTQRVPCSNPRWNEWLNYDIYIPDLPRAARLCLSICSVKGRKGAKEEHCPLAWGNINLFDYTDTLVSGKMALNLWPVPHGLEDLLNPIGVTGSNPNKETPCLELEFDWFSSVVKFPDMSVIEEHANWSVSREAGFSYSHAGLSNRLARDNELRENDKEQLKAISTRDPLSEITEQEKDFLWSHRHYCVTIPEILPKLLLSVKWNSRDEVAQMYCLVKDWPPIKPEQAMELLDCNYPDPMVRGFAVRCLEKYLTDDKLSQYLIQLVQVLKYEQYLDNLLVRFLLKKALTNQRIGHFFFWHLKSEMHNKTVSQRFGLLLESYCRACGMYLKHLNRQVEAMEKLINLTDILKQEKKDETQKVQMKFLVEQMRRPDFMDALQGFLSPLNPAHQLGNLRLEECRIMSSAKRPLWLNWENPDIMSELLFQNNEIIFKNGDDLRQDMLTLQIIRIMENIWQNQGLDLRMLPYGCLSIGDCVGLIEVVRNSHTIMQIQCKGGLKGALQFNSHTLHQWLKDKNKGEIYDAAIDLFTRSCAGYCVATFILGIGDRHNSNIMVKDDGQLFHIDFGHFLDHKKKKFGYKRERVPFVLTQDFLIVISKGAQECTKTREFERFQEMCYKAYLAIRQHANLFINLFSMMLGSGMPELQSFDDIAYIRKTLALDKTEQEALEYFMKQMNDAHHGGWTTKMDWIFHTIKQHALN
Sequence of Phosphatidylinositol 4,5-bisphosphate 3-kinase catalytic subunit beta isoform (P42338 whole entry, canonical isoform): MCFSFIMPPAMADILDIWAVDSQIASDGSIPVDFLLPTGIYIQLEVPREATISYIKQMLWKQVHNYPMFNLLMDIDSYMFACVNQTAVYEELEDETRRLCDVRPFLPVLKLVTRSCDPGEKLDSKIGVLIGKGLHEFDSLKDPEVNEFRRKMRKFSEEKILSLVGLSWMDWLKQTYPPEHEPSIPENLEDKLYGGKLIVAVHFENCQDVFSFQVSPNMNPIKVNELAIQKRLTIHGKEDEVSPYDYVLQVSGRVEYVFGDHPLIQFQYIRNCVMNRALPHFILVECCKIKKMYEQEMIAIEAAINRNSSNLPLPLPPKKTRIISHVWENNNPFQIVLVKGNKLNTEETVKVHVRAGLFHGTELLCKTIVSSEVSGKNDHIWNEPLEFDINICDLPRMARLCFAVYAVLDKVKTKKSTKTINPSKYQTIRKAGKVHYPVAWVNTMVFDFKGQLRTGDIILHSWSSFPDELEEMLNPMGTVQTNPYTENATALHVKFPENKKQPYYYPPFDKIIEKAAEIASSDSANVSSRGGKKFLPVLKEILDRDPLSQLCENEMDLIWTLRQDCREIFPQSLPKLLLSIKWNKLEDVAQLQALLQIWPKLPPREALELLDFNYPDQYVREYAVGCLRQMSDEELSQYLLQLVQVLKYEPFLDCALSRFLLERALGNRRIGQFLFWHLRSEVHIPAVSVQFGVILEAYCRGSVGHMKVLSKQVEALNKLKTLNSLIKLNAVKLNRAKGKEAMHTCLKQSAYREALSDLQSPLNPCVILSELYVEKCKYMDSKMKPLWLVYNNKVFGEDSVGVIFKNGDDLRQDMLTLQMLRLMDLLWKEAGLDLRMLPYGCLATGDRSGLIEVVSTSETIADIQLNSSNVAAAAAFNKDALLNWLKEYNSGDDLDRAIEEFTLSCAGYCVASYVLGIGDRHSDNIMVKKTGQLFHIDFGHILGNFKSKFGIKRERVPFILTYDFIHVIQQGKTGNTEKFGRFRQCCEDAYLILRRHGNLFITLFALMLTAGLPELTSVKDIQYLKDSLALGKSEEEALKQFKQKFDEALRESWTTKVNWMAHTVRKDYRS

In the case of `CCNC(=O)Nc1ccc(-c2nc(N3CCOC[C@@H]3C)c3cnn(C4CCN(C(=O)OCC)CC4)c3n2)cc1`, the Ratio IC50 in assay [1] was 307. This molecule also came in with an IC50 in assay [2] of 1.8 nM.

Turning to `COC(=O)N1CCC(n2ncc3c(N4CC5CCC(C4)O5)nc(-c4ccc(NC(=O)Nc5cccnc5)cc4)nc32)CC1`, the Ratio IC50 in assay [1] was determined as 5580. In assay [2], the IC50 is 0.11 nM.

Consider `O=C(Nc1ccc(-c2nc(N3C4CCC3COC4)c3cnn(CC(F)(F)F)c3n2)cc1)Nc1cccnc1`, for which, in assay [1], the Ratio IC50 was 1140.

For the molecule `CCNC(=O)Nc1ccc(-c2nc(N3CCOC(C)C3)c3cnn(C4CCN(C(=O)OC)CC4)c3n2)cc1` (stereo unspecified), the Ratio IC50 in assay [1] was found to be 360. Also, in assay [2], 1.9 nM corresponded to half-maximal inhibition (IC50).

Take `CCNC(=O)Nc1ccc(-c2nc(N3C4CCC3COC4)c3cnn(C4CCN(C(=O)OC)CC4)c3n2)cc1`: the Ratio IC50 in assay [1] turned out to be 8890.

Regarding `COC(=O)N1CCC(n2ncc3c(N4CC5CCC(C4)O5)nc(-c4ccc(NC(=O)NC5CC5)cc4)nc32)CC1`, in assay [1], the Ratio IC50 was found to be 6910. Further, the IC50 in assay [3] was 2630 nM; in assay [4], greater than 10000 nM; in assay [2] it was 0.62 nM; in assay [5] it was 4320 nM.

For the molecule `CNC(=O)Nc1ccc(-c2nc(N3C4CCC3COC4)c3cnn(CC(F)(F)F)c3n2)cc1`, the Ratio IC50 in assay [1] came out at 2420.

With `CCNC(=O)Nc1ccc(-c2nc(N3CCOCC3)c3cnn(C4CCN(C(=O)OCC)CC4)c3n2)cc1`, in assay [1], the Ratio IC50 came out at 4140. The molecule also displayed an IC50 in assay [2] of 0.17 nM.

Turning to `CNC(=O)Nc1ccc(-c2nc(N3C4CCC3COC4)c3cnn(C4CCN(C(=O)OC)CC4)c3n2)cc1`, the Ratio IC50 in assay [1] was determined as 19400.

For `O=C(Nc1ccc(-c2nc(N3CCOCC3)c3cnn(CC(F)(F)F)c3n2)cc1)Nc1cccnc1`, the Ratio IC50 in assay [1] worked out at 43. In assay [2], this molecule displayed a half-maximal inhibitory concentration (IC50) of 0.23 nM.

Consider `O=C(Nc1ccc(-c2nc(N3CC4CCC(C3)O4)c3cnn(CC(F)(F)F)c3n2)cc1)Nc1cccnc1`, for which the Ratio IC50 in assay [1] is 1820. In assay [2], the IC50 stood at 0.19 nM.

For `COC(=O)N1CCC(n2ncc3c(N4CCOCC4)nc(-c4ccc(NC(=O)Nc5cccnc5)cc4)nc32)CC1`, in assay [1], the Ratio IC50 was determined as 175.

For `CNC(=O)Nc1ccc(-c2nc(N3CCOCC3)c3cnn(CC(F)(F)F)c3n2)cc1`, in assay [1], the Ratio IC50 turned out to be 194.

For the molecule `CCOC(=O)N1CCC(n2ncc3c(N4CCOC[C@H]4C)nc(-c4ccc(NC(=O)Nc5ccncc5)cc4)nc32)CC1`, in assay [1], the Ratio IC50 turned out to be 1850.

Turning to `CCOC(=O)N1CCC(n2ncc3c(N4CCOC[C@H]4C)nc(-c4ccc(NC(=O)NCCF)cc4)nc32)CC1`, the Ratio IC50 in assay [1] came to 3670. This molecule registered an IC50 in assay [2] of 1.2 nM.

In the case of `CNC(=O)Nc1ccc(-c2nc(N3CC4CCC(C3)O4)c3cnn(C4CCN(Cc5cccnc5)CC4)c3n2)cc1`, in assay [1], the Ratio IC50 was 1410. The IC50 in assay [2] is 0.48 nM.

As for `CCNC(=O)Nc1ccc(-c2nc(N3CC4CCC(C3)O4)c3cnn(C4CCN(C(=O)OC)CC4)c3n2)cc1`, the Ratio IC50 in assay [1] came to 26700. The half-inhibitory concentration (IC50) was 0.2 nM in assay [2] and 9 nM in assay [6].

With `CCOC(=O)N1CCC(n2ncc3c(N4CCOC[C@@H]4C)nc(-c4ccc(NC(=O)Nc5ccncc5)cc4)nc32)CC1`, the Ratio IC50 in assay [1] is 32. Besides, the concentration for half-maximal inhibition (IC50) in assay [2] was determined as 0.58 nM.

Turning to `CCOC(=O)N1CCC(n2ncc3c(N4CCOC[C@@H]4C)nc(-c4ccc(NC(=O)NCCF)cc4)nc32)CC1`, in assay [1], the Ratio IC50 turned out to be 289. For the same molecule, the half-inhibitory concentration (IC50) in assay [2] turned out to be 1.8 nM.

In the case of `CCNC(=O)Nc1ccc(-c2nc(N3CCOC[C@H]3C)c3cnn(C4CCN(C(=O)OCC)CC4)c3n2)cc1`, in assay [1], the Ratio IC50 stood at 4980.

For `O=C(Nc1ccc(-c2nc(N3C[C@@H]4C[C@H]3CO4)c3cnn(CC(F)(F)F)c3n2)cc1)NC1CC1`, the Ratio IC50 in assay [1] is 2170. Further, the IC50 in assay [2] was 1.9 nM.

For the molecule `COC(=O)N1CCC(n2ncc3c(N4CCOC(C)C4)nc(-c4ccc(NC(=O)Nc5cccnc5)cc4)nc32)CC1` (stereo unspecified), the Ratio IC50 in assay [1] came to 135.

As for `CNC(=O)Nc1ccc(-c2nc(N3C[C@H]4C[C@@H]3CO4)c3cnn(CC(F)(F)F)c3n2)cc1`, the Ratio IC50 in assay [1] came out at 51.

For the molecule `CNC(=O)Nc1ccc(-c2nc(N3CC4CCC(C3)O4)c3cnn(C4CCN(C(=O)OC)CC4)c3n2)cc1`, the Ratio IC50 in assay [1] came out at 8010. The molecule also yielded an IC50 in assay [2] of 0.22 nM.

For `O=C(Nc1ccc(-c2nc(N3C[C@H]4C[C@@H]3CO4)c3cnn(CC(F)(F)F)c3n2)cc1)NC1CC1`, in assay [1], the Ratio IC50 came out at 179.

On to `O=C(NCCF)Nc1ccc(-c2nc(N3CC4CCC(C3)O4)c3cnn(CC(F)(F)F)c3n2)cc1`, for which the Ratio IC50 in assay [1] turned out to be 11900. In assay [2], this molecule had an IC50 of 0.23 nM.

Regarding `O=C(Nc1ccc(-c2nc(N3C[C@H]4C[C@@H]3CO4)c3cnn(CC(F)(F)F)c3n2)cc1)Nc1cccnc1`, the Ratio IC50 in assay [1] was 114.

In the case of `CNC(=O)Nc1ccc(-c2nc(N3CC4CCC(C3)O4)c3cnn(CC(F)(F)F)c3n2)cc1`, the Ratio IC50 in assay [1] worked out at 3230. The molecule further displayed an IC50 in assay [2] of 0.5 nM.

As to `O=C(NCCF)Nc1ccc(-c2nc(N3CCOCC3)c3cnn(CC(F)(F)F)c3n2)cc1`, the Ratio IC50 in assay [1] was determined as 524.

`COC(=O)N1CCC(n2ncc3c(N4C5CCC4COC5)nc(-c4ccc(NC(=O)Nc5cccnc5)cc4)nc32)CC1`: in assay [1], the Ratio IC50 was found to be 11100. Also, inhibition in assay [2] was half-maximal at 0.16 nM (IC50).

On to `CNC(=O)Nc1ccc(-c2nc(N3C[C@@H]4C[C@H]3CO4)c3cnn(CC(F)(F)F)c3n2)cc1`, for which the Ratio IC50 in assay [1] is 380.

With `CNC(=O)Nc1ccc(-c2nc(N3CCOC(C)C3)c3cnn(C4CCN(C(=O)OC)CC4)c3n2)cc1` (stereo unspecified), in assay [1], the Ratio IC50 turned out to be 116. The molecule also registered an IC50 in assay [2] of 2.3 nM.

`O=C(Nc1ccc(-c2nc(N3C[C@@H]4C[C@H]3CO4)c3cnn(CC(F)(F)F)c3n2)cc1)Nc1cccnc1`: the Ratio IC50 in assay [1] is 482. In addition, the 50% inhibitory concentration (IC50) in assay [2] stood at 1.2 nM.
